{"source": "patent US11751592B2", "about": "“Sweetness and taste improvement of steviol glycoside or mogroside sweeteners” (The Coca-Cola Company, priority 2016, dated 2023)", "key": {"panelists [1]": {"tested_on": "panelists", "test": "Taste evaluation of sweetness against sucrose solutions, Example 2 (compound 1 with Mogroside V)", "assay_type": "in vivo, human", "conditions": "for sweetness, equally sweet to sucrose in acidic water: two panelists", "description": "(§1) Ingredients were added to acidic water or acidic water with compound 1 while stirring until solids were visibly dissolved and the sample was poured into a glass bottle and stored at 4° C.\n(§2) Taste tests were carried out with two panelists. Bottles were removed from the refrigerator and about 25 ml of beverage was poured into 4 oz-plastic cups. Panelists were given mineral water to rinse their mouth before tasting and between tasting different samples. Unsalted crackers were also given to panelists to eat followed by rinsing their mouth with mineral water before tasting the next sample. The sucrose solutions in Table 4, a sample of Mogroside V in acidic water and a sample of compound 1 and Mogroside V in acidic water were given to panelists. Panelists were asked to evaluate the sweetness of samples against 7%, 8%, 9%, and 10% sucrose solution and describe the difference of taste profile. Panelists were instructed to sip, evaluate the sweetness, and then spit the samples in cups provided for that purpose."}, "panelists [2]": {"tested_on": "panelists", "test": "Taste evaluation of sweetness against sucrose solutions, Example 3 (compound 1 with Rebaudioside A)", "assay_type": "in vivo, human", "conditions": "for sweetness, equally sweet to sucrose in acidic water: two panelists", "description": "as §1\nas §2, with “Rebaudioside A” for “Mogroside V”, “differences in the” for “difference of”, “profiles.” for “profile.”"}, "panelists [3]": {"tested_on": "panelists", "test": "Taste evaluation of sweetness against sucrose solutions, Example 1 (compound 1 with Rebaudioside M)", "assay_type": "in vivo, human", "description": "as §1\nTaste tests were carried out with two panelists. Bottles were removed from the refrigerator and about 25 ml of beverage was poured into 4 oz-plastic cups. Panelists were given mineral water to rinse their mouth before tasting and between tasting different samples. Unsalted crackers were also given to panelists to eat followed by rinsing their mouth with mineral water before tasting the next sample.\nFirst, two panelists assessed the sweetness of 5 ppm of compound 1 in acidic water against 1.5% sucrose solution in acidic water.\nSucrose solutions in Table 5, a sample of Rebaudioside M in acidic water and a sample of compound 1 and Rebaudioside M in acidic water were given to panelists. Panelists were asked to evaluate the sweetness of samples against 7%, 8%, 9%, and 10% sucrose solution and describe the differences in the taste profiles. Panelists were instructed to sip, evaluate the sweetness, and then spit the samples in cups provided for that purpose."}, "[4]": {"test": "Solubility in water during sample preparation", "assay_type": "physicochemical", "conditions": "2.5 mg in 500 g water, initially, before microwave, sonication and agitation", "description": "The sample was treated with Microwave (1 min), Sonication (15 min), and agitation (30 min) repeatedly until the solution became visually clear. The solution was cooled at room temperature and citric acid was added."}, "[5]": {"conditions": "5 ppm compound 1 and 400 ppm Rebaudioside A in acidic water"}, "[6]": {"conditions": "5 ppm compound 1 and 400 ppm Mogroside V in acidic water, both panelists"}, "[7]": {"conditions": "5 ppm compound 1 and 320 ppm Rebaudioside M in acidic water"}}, "data": [{"smiles": "C[C@H](CC[C@@H](O[C@@H]1O[C@H](CO[C@@H]2O[C@H](CO)[C@@H](O)[C@H](O)[C@H]2O)[C@@H](O)[C@H](O)[C@H]1O[C@@H]1O[C@H](CO)[C@@H](O)[C@H](O)[C@H]1O)C(C)(C)O)[C@H]1CC[C@@]2(C)[C@@H]3CC=C4[C@@H](CC[C@H](O[C@@H]5O[C@H](CO[C@@H]6O[C@H](CO)[C@@H](O)[C@H](O)[C@H]6O)[C@@H](O)[C@H](O)[C@H]5O)C4(C)C)[C@]3(C)[C@H](O)C[C@]12C", "note": "[Mogroside V, reference compound]", "values": [{"measurement": "sweetness, equally sweet to sucrose in acidic water", "setting": "panelists [1]; 400 ppm Mogroside V in acidic water, without compound 1", "result": 7, "unit": "% sucrose"}]}, {"smiles": "C=C1C[C@@]23CC[C@H]4[C@@](C)(CCC[C@@]4(C)C(=O)O[C@@H]4O[C@H](CO)[C@@H](O)[C@H](O)[C@H]4O)[C@@H]2CC[C@]1(O[C@@H]1O[C@H](CO)[C@@H](O)[C@H](O[C@@H]2O[C@H](CO)[C@@H](O)[C@H](O)[C@H]2O)[C@H]1O[C@@H]1O[C@H](CO)[C@@H](O)[C@H](O)[C@H]1O)C3", "note": "[Rebaudioside A, reference compound]", "values": [{"measurement": "sweetness, equally sweet to sucrose in acidic water", "setting": "panelists [2]; 400 ppm Rebaudioside A in acidic water, without compound 1", "result": 7, "unit": "% sucrose"}]}, {"smiles": "C=C1C[C@@]23CC[C@H]4[C@@](C)(CCC[C@@]4(C)C(=O)O[C@@H]4O[C@H](CO)[C@@H](O)[C@H](O[C@@H]5O[C@H](CO)[C@@H](O)[C@H](O)[C@H]5O)[C@H]4O[C@@H]4O[C@H](CO)[C@@H](O)[C@H](O)[C@H]4O)[C@@H]2CC[C@]1(O[C@@H]1O[C@H](CO)[C@@H](O)[C@H](O[C@@H]2O[C@H](CO)[C@@H](O)[C@H](O)[C@H]2O)[C@H]1O[C@@H]1O[C@H](CO)[C@@H](O)[C@H](O)[C@H]1O)C3", "note": "[Rebaudioside M, reference compound]", "values": [{"measurement": "sweetness, equally sweet to sucrose in acidic water", "setting": "panelists [3]; 320 ppm Rebaudioside M in acidic water, without compound 1, two panelists", "result": 8, "unit": "% sucrose"}]}, {"smiles": "CC(C)CC(=O)N1CCC[C@H](COc2cccc3c2C(N)=NS(=O)(=O)N3)C1", "note": "[compound 1, (S)-1-(3-(((4-amino-2,2-dioxido-1H-benzo[c][1,2,6]thiadiazin-5-yl)oxy)methyl)piperidin-1-yl)-3-methylbutan-1-one]", "values": [{"measurement": "solubility in water", "setting": "[4]", "result": "not completely soluble"}, {"measurement": "taste profile: bitterness", "setting": "panelists [2]; [5]", "result": "more bitter"}, {"measurement": "sweetness, equally sweet to sucrose in acidic water", "setting": "panelists [2]; [5]", "result": 7, "unit": "% sucrose"}, {"measurement": "sweetness enhancement", "setting": "panelists [2]; 5 ppm compound 1 in acidic water containing 400 ppm Rebaudioside A", "result": "does not enhance the sweetness"}, {"measurement": "taste profile: mouthfeel", "setting": "panelists [1]; 5 ppm compound 1 and 400 ppm Mogroside V in acidic water, compared to the sample with just Mogroside V, one panelist", "result": "more mouthfeel"}, {"measurement": "taste profile: bitterness", "setting": "panelists [1]; [6]", "result": "not bitter"}, {"measurement": "taste profile: sweet linger", "setting": "panelists [1]; [6]", "result": "slight sweet linger"}, {"measurement": "taste profile: sweetness onset", "setting": "panelists [1]; [6]", "result": "slower sweetness onset"}, {"measurement": "sweetness, equally sweet to sucrose in acidic water", "setting": "panelists [1]; 5 ppm compound 1 and 400 ppm Mogroside V in acidic water", "result": 10, "unit": "% sucrose"}, {"measurement": "sweetness against sucrose solution in acidic water", "setting": "panelists [3]; 5 ppm compound 1 alone in acidic water, two panelists", "result": "< 1.5", "unit": "% sucrose"}, {"measurement": "taste profile: bitterness", "setting": "panelists [3]; [7]", "result": "no bitterness"}, {"measurement": "taste profile: mouthfeel", "setting": "panelists [3]; [7]", "result": "more mouthfeel"}, {"measurement": "sweetness, equally sweet to sucrose in acidic water", "setting": "panelists [3]; 5 ppm compound 1 and 320 ppm Rebaudioside M in acidic water, two panelists", "result": 10, "unit": "% sucrose"}]}]}
